Like-named read-outs stand apart in the source and are kept apart here.

Holding throughout (format): in vivo, Balb/C mice
Experiment [1] concerns acetic acid-induced stress mice. The experiment is described as follows: Chemical induced stress (acetic acid model, writhes). An excerpt: The anti-stress effect of synthesized flavonoids was screened for chemical-induced stress using the acetic acid model. Animals were randomly assigned into two groups of 8. The control group received Tween 80 (2%). […] The treatments in all groups were given persistently for a period of 15 days.

Experiment [2] concerns mice. Briefly: Biochemical parameters in brain after restraint stress. Conditions: flavonoids 10 mg/kg, standard diazepam 2 mg/kg, 15 days, mean ± SEM.
The test system of experiment [3] is mice. Briefly: Biochemical parameters in blood after restraint stress. As to conditions: flavonoids 10 mg/kg, standard diazepam 2 mg/kg, 15 days, mean ± SEM. An excerpt:
(§1) The adhesive tape was removed, and blood samples were collected. After blood collection, the animals were sacrificed, and the brain and vital organs were isolated and weighed.
After restrain test, blood samples were collected for the assessment of blood glucose, triglycerides and total cholesterol levels, using available commercial kits. […]

Experiment [4] deals with mice. The experiment is described as follows: Restraint stress, organ weights. Conditions: restraint stress 2 h; flavonoids 10 mg/kg p.o., standard diazepam 2 mg/kg IP, 15 days; mean ± SEM.
Source text: as §1

Experiment [5] relates to mice. Briefly: Swimming endurance test. As to conditions: flavonoids 10 mg/kg, standard diazepam 2 mg/kg IP, 15 days; recorded for 30 min; mean ± SEM, n = 8. Here is the method: Animals were divided at random into two groups of 8. Tween 80 (2%) was given to the control group, while animals in each group were treated with 10 mg/kg of each flavonoid. […] All the doses were given constantly for 15 days. On 15th day, one hour after the dose administration, all the animals were allowed to swim in isolation in a glass tank. The time of immobility for each animal was recorded for a period of 30 min [26, 27].

The mark [6] stands for this setting: Mus musculus, ip, 360 h; read-out: Antistress Response (%).
Setting [7] is: Mus musculus, ip, 360 h, read-out: Antistress Response (%).
Where [8] appears, read: flavonoids 10 mg/kg, standard diazepam 2 mg/kg IP, 15 days; acetic acid i.p. 0.1 mL (6% v/v), writhes within 20 min; mean ± SEM, n = 8.

As to `Cc1ccc(-c2oc3ccccc3c(=O)c2O)cc1` [OF2], in experiment [1] (setting [6]), the inhibition in vivo at 10 mg/kg is 74.3%. In the experiment with mice [2], the “Catalase (brain)” value came out at 18.74 ± 0.67 IU/dL, the “SOD (brain)” value stood at 9.02 ± 0.54 IU/dL and the “TBARS (brain lipid peroxidation)” value is on record as 17.74 ± 0.56 nmol/g. In the experiment on mice [3], the “Glucose (blood)” value is on record as 97.56 ± 1.61, the “TGs (blood triglycerides)” value is listed as 42.88 ± 0.41 and the “Total Ch (blood total cholesterol)” value turned out to be 76.82 ± 0.86. For the same molecule, in the experiment with mice [4], the “Weight of Adrenal Gland” value turned out to be 7.21 ± 1.87 mg, the “Weight of Brain” value stood at 414.2 ± 2.51 mg and the “Weight of Spleen” value was 190.5 ± 2.76 mg. For the same molecule, the “Immobility Time” value in the experiment with mice [5] amounted to 2.95 ± 0.37 min.

For `Cc1ccc(-c2cc(=O)c3ccccc3o2)cc1` [F2], the inhibition in vivo at 10 mg/kg in experiment [1] (setting [6]) turned out to be 72.3%. Moreover, in the experiment on mice [2], the “Catalase (brain)” value stood at 18.21 ± 0.61 IU/dL, the “SOD (brain)” value is reported as 8.77 ± 0.59 IU/dL and the “TBARS (brain lipid peroxidation)” value was 18.72 ± 0.62 nmol/g. In the experiment on mice [3], the “Glucose (blood)” value came to 99.23 ± 1.69, the “TGs (blood triglycerides)” value came out at 45.09 ± 0.67 and the “Total Ch (blood total cholesterol)” value turned out to be 78.61 ± 0.78. In the experiment with mice [4], the “Weight of Adrenal Gland” value was 7.63 ± 1.11 mg, the “Weight of Brain” value was found to be 401.6 ± 3.11 mg and the “Weight of Spleen” value is 180.4 ± 2.38 mg. Moreover, the “Immobility Time” value in the experiment on mice [5] stood at 3.12 ± 0.38 min.

Take `O=c1c(O)c(-c2ccc(Cl)cc2)oc2ccccc12` [OF4]: the inhibition in vivo at 10 mg/kg in experiment [1] (setting [7]) was determined as 67.1%. Moreover, the “Number of Writhes” value in experiment [1] (setting [8]) is on record as 14.18 ± 2.17. Moreover, in the experiment with mice [2], the “Catalase (brain)” value amounted to 17.45 ± 0.66 IU/dL, the “SOD (brain)” value amounted to 8.35 ± 0.64 IU/dL and the “TBARS (brain lipid peroxidation)” value amounted to 18.67 ± 0.76 nmol/g. In the experiment on mice [3], the “Glucose (blood)” value amounted to 101.15 ± 1.66, the “TGs (blood triglycerides)” value stood at 46.92 ± 0.44 and the “Total Ch (blood total cholesterol)” value stood at 78.33 ± 0.76. For the same molecule, in the experiment with mice [4], the “Weight of Adrenal Gland” value came out at 7.91 ± 1.91 mg, the “Weight of Brain” value is 401.8 ± 2.34 mg and the “Weight of Spleen” value came out at 183.9 ± 2.56 mg. Moreover, the “Immobility Time” value with mice [5] stood at 3.44 ± 0.25 min.

On to `CN(C)c1ccc(-c2oc3ccccc3c(=O)c2O)cc1` [OF5], for which the inhibition in vivo at 10 mg/kg in experiment [1] (setting [6]) stood at 63.3%. Further, the “Number of Writhes” value in experiment [1] (setting [8]) is listed as 16.44 ± 3.04. Further, in the experiment with mice [2], the “Catalase (brain)” value is 17.06 ± 0.61 IU/dL, the “SOD (brain)” value is reported as 8.11 ± 0.51 IU/dL and the “TBARS (brain lipid peroxidation)” value worked out at 18.56 ± 0.51 nmol/g. Further, in the experiment on mice [3], the “Glucose (blood)” value was determined as 101.09 ± 1.14, the “TGs (blood triglycerides)” value was found to be 46.24 ± 0.39 and the “Total Ch (blood total cholesterol)” value turned out to be 77.91 ± 0.97. Also, in the experiment with mice [4], the “Weight of Adrenal Gland” value came out at 8.04 ± 1.18 mg, the “Weight of Brain” value came out at 400.5 ± 2.21 mg and the “Weight of Spleen” value was determined as 186.3 ± 2.74 mg. Besides, the “Immobility Time” value in the experiment on mice [5] was 3.25 ± 0.29 min.

On to `O=c1cc(-c2ccc(Cl)cc2)oc2ccccc12` [F4], for which the inhibition in vivo at 10 mg/kg in experiment [1] (setting [7]) was determined as 65.8%. Also, the “Number of Writhes” value in experiment [1] (setting [8]) is on record as 16.21 ± 2.09. In the experiment on mice [2], the “Catalase (brain)” value is listed as 17.88 ± 0.59 IU/dL, the “SOD (brain)” value is given as 9.31 ± 0.78 IU/dL and the “TBARS (brain lipid peroxidation)” value is 19.09 ± 0.49 nmol/g. In addition, in the experiment on mice [3], the “Glucose (blood)” value is 100.92 ± 1.91, the “TGs (blood triglycerides)” value turned out to be 47.51 ± 0.38 and the “Total Ch (blood total cholesterol)” value was found to be 80.76 ± 0.91. Besides, in the experiment on mice [4], the “Weight of Adrenal Gland” value worked out at 8.03 ± 1.98 mg, the “Weight of Brain” value is 402.4 ± 3.19 mg and the “Weight of Spleen” value was 173.1 ± 2.66 mg. In addition, the “Immobility Time” value with mice [5] was 3.21 ± 0.19 min.

For the molecule `O=c1cc(-c2ccccc2)oc2ccccc12` [F1], the inhibition in vivo at 10 mg/kg in experiment [1] (setting [6]) amounted to 58.9%. In experiment [1] (setting [8]), the “Number of Writhes” value is recorded as 19.45 ± 1.89. In addition, in the experiment with mice [2], the “Catalase (brain)” value was 16.33 ± 0.69 IU/dL, the “SOD (brain)” value was 7.96 ± 0.60 IU/dL and the “TBARS (brain lipid peroxidation)” value is recorded as 19.42 ± 0.51 nmol/g. In the experiment on mice [3], the Glucose (blood) came to 105 ± 2.15 mg/dL, the “TGs (blood triglycerides)” value amounted to 54.39 ± 0.87 and the “Total Ch (blood total cholesterol)” value is 81.33 ± 0.61. Moreover, in the experiment on mice [4], the “Weight of Adrenal Gland” value was found to be 8.13 ± 1.69 mg, the “Weight of Brain” value was 398.1 ± 2.57 mg and the “Weight of Spleen” value was 171.5 ± 2.71 mg. Besides, the “Immobility Time” value with mice [5] worked out at 4.05 ± 0.45 min.

With `CN(C)c1ccc(-c2cc(=O)c3ccccc3o2)cc1` [F5], the inhibition in vivo at 10 mg/kg in experiment [1] (setting [6]) worked out at 64.6%. For the same molecule, the “Number of Writhes” value in experiment [1] (setting [8]) is recorded as 16.31 ± 2.58. For the same molecule, in the experiment with mice [2], the “Catalase (brain)” value is given as 17.11 ± 0.51 IU/dL, the “SOD (brain)” value was determined as 8.04 ± 0.57 IU/dL and the “TBARS (brain lipid peroxidation)” value came to 19.02 ± 0.71 nmol/g. In the experiment with mice [3], the “Glucose (blood)” value is on record as 101.33 ± 1.72, the “TGs (blood triglycerides)” value worked out at 46.72 ± 0.51 and the “Total Ch (blood total cholesterol)” value came to 81.82 ± 0.85. Further, in the experiment on mice [4], the “Weight of Adrenal Gland” value turned out to be 8.12 ± 1.81 mg, the “Weight of Brain” value is 412.7 ± 2.81 mg and the “Weight of Spleen” value stood at 170.3 ± 2.61 mg. Further, the “Immobility Time” value in the experiment on mice [5] amounted to 3.64 ± 0.21 min.

For `CN1C(=O)CN=C(c2ccccc2)c2cc(Cl)ccc21` [Standard, Diazepam, reference compound], in the experiment on mice [3], the Glucose (blood) came to 108.2 ± 1.06 mg/dL, the “TGs (blood triglycerides)” value came to 38.52 ± 0.57 and the “Total Ch (blood total cholesterol)” value amounted to 75.62 ± 0.65. Also, in the experiment with mice [4], the “Weight of Adrenal Gland” value is on record as 10.58 ± 5.77 ^ns mg and the “Weight of Spleen” value was found to be 158.3 ± 2.89 mg. Further, the “Immobility Time (Min)” value in the experiment with mice [5] is reported as “reduced the immobility time to a significant level”.

On to `O=c1c(O)c(-c2ccccc2)oc2ccccc12` [OF1], for which the inhibition in vivo at 10 mg/kg in experiment [1] (setting [6]) is 63.4%. In addition, the “Number of Writhes” value in experiment [1] (setting [8]) amounted to 17.32 ± 2.33. Further, in the experiment with mice [2], the “Catalase (brain)” value is 17.02 ± 0.71 IU/dL, the “SOD (brain)” value is reported as 8.46 ± 0.76 IU/dL and the “TBARS (brain lipid peroxidation)” value is listed as 19.25 ± 0.51 nmol/g. In the experiment on mice [3], the Glucose (blood) came to 105 ± 1.77 mg/dL, the “TGs (blood triglycerides)” value was determined as 51.22 ± 0.66 and the “Total Ch (blood total cholesterol)” value was 80.81 ± 0.72. In the experiment with mice [4], the “Weight of Adrenal Gland” value is reported as 8.09 ± 1.34 mg, the “Weight of Brain” value came out at 397.4 ± 3.76 mg and the “Weight of Spleen” value came to 188.4 ± 2.24 mg. Further, the “Immobility Time” value in the experiment on mice [5] came out at 4.32 ± 0.31 min.

In the case of `COc1ccc(-c2cc(=O)c3ccccc3o2)cc1` [F3], the inhibition in vivo at 10 mg/kg in experiment [1] (setting [6]) was 74.4%. In the experiment with mice [2], the “Catalase (brain)” value was found to be 18.92 ± 0.51 IU/dL, the “SOD (brain)” value is 9.42 ± 0.87 IU/dL and the “TBARS (brain lipid peroxidation)” value is recorded as 18.44 ± 0.63 nmol/g. In the experiment on mice [3], the “Glucose (blood)” value was 98.45 ± 1.51, the “TGs (blood triglycerides)” value is 44.69 ± 0.37 and the “Total Ch (blood total cholesterol)” value is 78.43 ± 0.93. Besides, in the experiment with mice [4], the “Weight of Adrenal Gland” value is 7.22 ± 1.51 mg, the “Weight of Brain” value came to 411.3 ± 2.93 mg and the “Weight of Spleen” value stood at 181.7 ± 2.06 mg. In addition, the “Immobility Time” value with mice [5] came to 2.88 ± 0.26 min.

The values are drawn from PMC8879959, “In Vivo Antistress Effects of Synthetic Flavonoids in Mice: Behavioral and Biochemical Approach” (Molecules, 2022).
